The values that follow come from patent publication US20140357860A1, “SALT OF IVABRADINE WITH ADIPIC ACID” (ratiopharm GmbH, priority 2010, published 2014).

Where a name gives a salt, the structure may show the parent alone. Some results are limits rather than exact numbers.

The nature of data set [1]: Stability of the solid form on storage at different temperatures and humidities, open or closed containers. Format: physicochemical. As to conditions: for Stability, summary in words: various conditions of temperature, humidity and container. The source says:
The stability of ivabradine adipate in comparison to ivabradine hydrochloride form I was investigated at different temperatures and humidities in open or closed containers for different storage times.

The conditions of data set [2]: under physiological conditions; cited from earlier work.

`COc1cc2c(cc1OC)CC(=O)N(CCCN(C)C[C@H]1Cc3cc(OC)c(OC)cc31)CC2` [Ivabradine HCl form I, Ivabradine HCl]: the “Stability (solid form after storage)” value is recorded as “unchanged” in data set [1] (25° C./60% closed, 33 d); “β + unident” in data set [1] (25° C./60% open, 33 d); “unchanged” in data set [1] (30° C./65% closed, 33 d); “β” in data set [1] (30° C./65% open, 33 d); “unchanged” in data set [1] (40° C./75% closed, 33 d); “β” in data set [1] (40° C./75% open, 33 d). For the same compound, in data set [1] (HCl), the “Stability, summary in words” value is on record as “undergoes phase transition into Ivabradine HCl, form beta”.
Turning to `COc1cc2c(cc1OC)CC(=O)N(CCCN(C)C[C@H]1Cc3cc(OC)c(OC)cc31)CC2` [Ivabradine adipate, Ivabradine Adipate], the “Stability (solid form after storage)” value in data set [1] (25° C./60% closed, 57 d) is on record as “unchanged”; in data set [1] (25° C./60% open, 57 d) it was “unchanged”; in data set [1] (30° C./65% closed, 57 d) it was “unchanged”; in data set [1] (30° C./65% open, 57 d), “unchanged”; in data set [1] (40° C./75% closed, 57 d), “unchanged”; in data set [1] (40° C./75% open, 57 d) it was “unchanged”. The “Stability, summary in words” value in data set [1] was “stable”.
For the compound `COc1cc2c(cc1OC)CC(=O)N(CCCN(C)C[C@H]1Cc3cc(OC)c(OC)cc31)CC2` [Ivabradine, (S)-3-{3-[(3,4-dimethoxybicyclo[4.2.0]octa-1,3,5-trien-7-ylmethyl)methylamino]propyl}-7,8-dimethoxy-2,3,4,5-tetrahydro-1H-3-benzazepin-2-one], in data set [2], the water solubility was > 10000 µg/mL.
